Drawing on patent US10266497B2 (ABIDE THERAPEUTICS, INC., priority 2017, dated 2019), this text covers inhibition for 24 compounds.

Assay [1] addresses T1, MAGL (Mus musculus, UniProt O35678).
T1 sequence (O35678 1-303): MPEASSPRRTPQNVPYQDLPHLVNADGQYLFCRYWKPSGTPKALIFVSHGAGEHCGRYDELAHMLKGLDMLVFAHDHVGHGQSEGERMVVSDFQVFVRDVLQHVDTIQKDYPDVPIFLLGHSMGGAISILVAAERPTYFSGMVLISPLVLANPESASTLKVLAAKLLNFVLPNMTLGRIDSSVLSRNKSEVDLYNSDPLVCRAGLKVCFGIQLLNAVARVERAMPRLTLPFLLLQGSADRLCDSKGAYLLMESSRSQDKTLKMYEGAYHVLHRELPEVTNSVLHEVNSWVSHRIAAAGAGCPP
Briefly: In vitro competitive activity-based protein profiling, MAGL, mouse. The conditions noted are these: read-out: MAGL % inh. 1 μM (mouse).
Procedure: Biological Evaluation In Vitro Competitive Activity-Based Protein Profiling.
Proteomes (mouse brain membrane fraction for mouse assays; human prefrontal cortex membrane fractions for human assays) (50 mL, 1.0 mg/mL total protein concentration) were preincubated with varying concentrations of inhibitors at 37° C. After 30 min, FP-Rh (1.0 mL, 50 mM in DMSO) was added and the mixture was incubated for another 30 min at 37° C. Reactions were quenched with SDS loading buffer (15 μL—4λ) and run on SDS-PAGE.

Assay [2] addresses T2, MAGL (Homo sapiens, UniProt Q99685).
T2 sequence (Q99685 1-303): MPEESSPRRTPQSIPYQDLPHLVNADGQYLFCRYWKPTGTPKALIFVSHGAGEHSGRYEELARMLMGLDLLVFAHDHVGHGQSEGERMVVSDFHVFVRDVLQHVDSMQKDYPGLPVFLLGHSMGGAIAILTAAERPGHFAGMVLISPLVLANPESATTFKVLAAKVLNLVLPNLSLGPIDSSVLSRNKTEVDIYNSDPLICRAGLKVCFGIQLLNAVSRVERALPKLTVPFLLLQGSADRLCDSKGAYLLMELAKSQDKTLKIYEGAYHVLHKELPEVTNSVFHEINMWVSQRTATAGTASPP
Briefly: In vitro competitive activity-based protein profiling, MAGL, human. The conditions noted are these: for inhibition at 1 µM: read-out: MAGL % inh. 1 μM (human).

As for `C[C@@H]1CN(Cc2cc(F)cc(Oc3ccccc3Cl)c2)CCN1C(=O)n1ccc(C(=O)O)n1` [Example 350, (R)-1-(4-(3-(2-chlorophenoxy)-5-fluorobenzyl)-2-methylpiperazine-1-carbonyl)-1H-pyrazole-3-carboxylic acid], the inhibition at 1 µM on MAGL [1] and on MAGL [2] was more than 75% throughout.
Take `O=C(O)c1ccn(C(=O)N2CCC3(CCN(Cc4cc(N5CCCC5)ccc4C(F)(F)F)C3)CC2)n1` [Example 391, 1-(2-(5-(pyrrolidin-1-yl)-2-(trifluoromethyl)benzyl)-2,8-diazaspiro[4.5]decane-8-carbonyl)-1H-pyrazole-3-carboxylic acid]: the inhibition at 1 µM on MAGL [1] and at MAGL [2] was more than 75% each time.
For the compound `CCOc1cc(CN2CCC3(CCN(C(=O)n4ccc(C(=O)O)n4)CC3)C2)ccc1Cl` [Example 21, 1-(2-(4-chloro-3-ethoxybenzyl)-2,8-diazaspiro[4.5]decane-8-carbonyl)-1H-pyrazole-3-carboxylic acid], the inhibition at 1 µM at MAGL [1] and at MAGL [2] was 25 to 50% each time.
In the case of `CN(Cc1ccc(N2CCCC2)c(C(F)(F)F)c1)C1(C)CCN(C(=O)n2ccc(C(=O)O)n2)CC1` [Example 383, 1-(4-methyl-4-(methyl(4-(pyrrolidin-1-yl)-3-(trifluoromethyl)benzyl)amino)piper-idine-1-carbonyl)-1H-pyrazole-3-carboxylic acid], the inhibition at 1 µM on MAGL [1] and on MAGL [2] was more than 75% throughout.
Take `O=C(O)c1ccn(C(=O)N2CCC(OCc3cc(Cl)cc(Cl)c3)CC2)n1` [Example 224, 1-(4-((3,5-dichlorobenzyl)oxy)piperidine-1-carbonyl)-1H-pyrazole-3-carboxylic acid]: the inhibition at 1 µM on MAGL [1] and at MAGL [2] was more than 75% throughout.
Take `O=C(O)c1ccn(C(=O)N2CCC3(CCN(Cc4cccc(Cl)c4Cl)C3)CC2)n1` [Example 286, 1-(2-(2,3-dichlorobenzyl)-2,8-diazaspiro[4.5]decane-8-carbonyl)-1H-pyrazole-3-carboxylic acid]: the inhibition at 1 µM at MAGL [1] and at MAGL [2] was more than 75% throughout.
As for `Cc1cn(C(=O)N2C[C@H]3C[C@H](OCc4cccc(C(F)(F)F)c4)C[C@H]3C2)nc1C(=O)O` [Example 290, 4-methyl-1-(trans-5-((3-(trifluoromethyl)benzyl)oxy)octa-hydrocyclopenta[c]pyrrole-2-carbonyl)-1H-pyrazole-3-carboxylic acid], the inhibition at 1 µM on MAGL [1] and at MAGL [2] was more than 75% throughout.
As to `O=C(O)c1ccn(C(=O)N2CCN(Cc3cccc(Oc4ccc(F)cn4)c3)CC2)n1` [Example 266, 1-(4-(3-((5-fluoropyridin-2-yl)oxy)benzyl)piper-azine-1-carbonyl)-1H-pyrazole-3-carboxylic acid], the inhibition at 1 µM on MAGL [1] and at MAGL [2] was more than 75% each time.
Take `O=C(O)c1nn(C(=O)N2CCN(Cc3cccc(Oc4cc(C(F)(F)F)ccn4)c3)CC2)cc1C(F)(F)F` [Example 414, 4-(trifluoromethyl)-1-(4-(3-((4-(trifluoromethyl)pyridin-2-yl)oxy)benzyl)piper-azine-1-carbonyl)-1H-pyrazole-3-carboxylic acid]: the inhibition at 1 µM at MAGL [1] and at MAGL [2] was more than 75% each time.
Take `Cc1cc(-c2cccc(S(C)(=O)=O)c2)ccc1CN1CCN(C(=O)n2ccc(C(=O)O)n2)[C@H](C)C1` [Example 386, (R)-1-(2-methyl-4-((3-methyl-3′-(methylsulfonyl)-[1,1′-biphenyl]-4-yl)methyl)piperazine-1-carbonyl)-1H-pyrazole-3-carboxylic acid]: the results for the inhibition at 1 µM at MAGL [1] and on MAGL [2] were more than 75% and 50 to 75%, respectively.
As for `O=C(O)c1nn(C(=O)N2C[C@H]3C[C@H](Oc4cccc(-c5ccccc5)c4)C[C@H]3C2)cc1Cl` [Example 304, 1-(trans-5-([1,1′-biphenyl]-3-yloxy)octahydrocyc-lopenta[c]pyrrole-2-carbonyl)-4-chloro-1H-pyrazole-3-carboxylic acid], the inhibition at 1 µM at MAGL [1] and on MAGL [2] was more than 75% in each case.
On to `C[C@@H]1CN(Cc2cc(Cl)cc(C(F)(F)F)c2)CCN1C(=O)n1ccc(C(N)=O)n1` [Example 272, (R)-1-(4-(3-chloro-5-(trifluoromethyl)benzyl)-2-methylpiperazine-1-carbonyl)-1H-pyrazole-3-carboxamide], for which the inhibition at 1 µM on MAGL [1] and on MAGL [2] was more than 75% in each case.
In the case of `O=C(O)c1nn(C(=O)N2C[C@H]3C[C@H](Oc4cccc(-c5ccccc5)c4)C[C@H]3C2)cc1C(F)(F)F` [Example 369, 1-(trans-5-([1,1′-biphenyl]-3-yloxy)octahydro-cyclopenta[c]pyrrole-2-carbonyl)-4-(trifluoromethyl)-1H-pyrazole-3-carboxylic acid], the inhibition at 1 µM at MAGL [1] and at MAGL [2] was more than 75% each time.
As to `O=C(O)c1ccn(C(=O)N2C[C@H]3C[C@H](Oc4cccc(C5CCCC5)c4)C[C@H]3C2)n1` [Example 232, 1-(trans-5-(3-cyclopentylphenoxy)octahydrocyclopenta [c]pyrrole-2-carbonyl)-1H-pyrazole-3-carboxylic acid], the inhibition at 1 µM at MAGL [1] and at MAGL [2] was more than 75% throughout.
Consider `CN(Cc1ccc(C(F)(F)F)cc1N1CCC1)C1(C)CCN(C(=O)n2ccc(C(=O)O)n2)CC1` [Example 362, 1-(4-((2-(azetidin-1-yl)-4-(trifluoromethyl)benzyl)(methyl)amino)-4-methylpiperidine-1-carbonyl)-1H-pyrazole-3-carboxylic acid], for which the inhibition at 1 µM on MAGL [1] and at MAGL [2] was more than 75% in each case.
Consider `O=C(O)c1nn(C(=O)N2C[C@H]3C[C@H](OCc4cccc(C(F)(F)F)c4)C[C@H]3C2)cc1Cl` [Example 314, 4-chloro-1-(trans-5-((3-(trifluoromethyl)benzyl)oxy)octa-hydrocyclopenta[c]pyrrole-2-carbonyl)-1H-pyrazole-3-carboxylic acid], for which the inhibition at 1 µM on MAGL [1] and on MAGL [2] was more than 75% each time.
Regarding `O=C(O)c1ccn(C(=O)N2C[C@H]3CN(Cc4ccc(Cl)c(-c5nccs5)c4)C[C@H]3C2)n1` [Example 315, 1-((3aR,6aS)-5-(4-chloro-3-(thiazol-2-yl)benzyl)octa-hydropyrrolo[3,4-c]pyrrole-2-carbonyl)-1H-pyrazole-3-carboxylic acid], the inhibition at 1 µM at MAGL [1] and on MAGL [2] was more than 75% in each case.
On to `C[C@@H]1CN(Cc2cccc(Oc3cc(C(F)(F)F)ccn3)c2)CCN1C(=O)n1ccc(C(=O)O)n1` [Example 374, (R)-1-(2-methyl-4-(3-((4-(trifluoromethyl)pyridin-2-yl)oxy)benzyl)piper-azine-1-carbonyl)-1H-pyrazole-3-carboxylic acid], for which the inhibition at 1 µM on MAGL [1] and on MAGL [2] was more than 75% throughout.
With `O=C(O)c1ccn(C(=O)N2C[C@H]3C[C@H](Oc4ccc(Cl)c(-c5nccs5)c4)C[C@H]3C2)n1` [Example 318, 1-(trans-5-(4-chloro-3-(thiazol-2-yl)phenoxy)octa-hydrocyclopenta[c]pyrrole-2-carbonyl)-1H-pyrazole-3-carboxylic acid], the inhibition at 1 µM at MAGL [1] and at MAGL [2] was more than 75% each time.
For the compound `O=C(O)c1ccn(C(=O)N2CCC3(CCN(Cc4cccc(-c5ccccn5)c4)C3)CC2)n1` [Example 301, 1-(2-(3-(pyridin-2-yl)benzyl)-2,8-diazaspiro[4.5]decane-8-carbonyl)-1H-pyrazole-3-carboxylic acid], the inhibition at 1 µM on MAGL [1] lay in the range of 0 to 25%. In addition, the inhibition at 10 µM on MAGL [2] (read-out: MAGL % inh. (human) at 10 uM) was more than 75%.
For `CN(Cc1cccc(C(F)(F)F)c1)C1(C)CCN(C(=O)n2ccc(C(N)=O)n2)CC1` [Example 258, 1-(4-methyl-4-(methyl(3-(trifluoromethyl)benzyl)amino)piper-idine-1-carbonyl)-1H-pyrazole-3-carboxamide], the inhibition at 1 µM at MAGL [1] and on MAGL [2] was more than 75% in each case.
For `Cc1cn(C(=O)N2C[C@H]3C[C@H](Oc4cccc(-c5ccccc5)c4)C[C@H]3C2)nc1C(=O)O` [Example 280, 1-(trans-5-([1,1′-biphenyl]-3-yloxy)octahydro-cyclopenta[c]pyrrole-2-carbonyl)-4-methyl-1H-pyrazole-3-carboxylic acid], the inhibition at 1 µM at MAGL [1] and at MAGL [2] was more than 75% each time.
Consider `O=C(O)c1ccn(C(=O)N2CCC3(CCCN3Cc3ccc(C(F)(F)F)cc3N3CC4CCC(C3)O4)CC2)n1` [Example 416, 1-(1-(2-(8-oxa-3-azabicyclo[3.2.1]octan-3-yl)-4-(trifluoromethyl)benzyl)-1,8-diazaspiro[4.5]decane-8-carbonyl)-1H-pyrazole-3-carboxylic acid], for which the inhibition at 1 µM on MAGL [1] and on MAGL [2] was more than 75% each time.
For `NC(=O)c1ccn(C(=O)N2CC3CN(Cc4ccc(C5(O)CCOCC5)cc4C(F)(F)F)CC3C2)n1` (stereo not drawn) [Example 396], the inhibition at 1 µM at MAGL [1] and on MAGL [2] was more than 75% in each case.
